Data as given in patent publication USRE48468E1, “Means and methods for counteracting muscle disorders” (BioMarin Technologies B.V., priority 2007, dated 2021).
pKi: −log10 of the molar value. Where a SMILES comes first, the peptide text is derived from it. The star is where a group is joined. Cbz = O=C(OCc1ccccc1)*

Experiments:
DMD gene exon 44 = experiment: Exon 44 skipping in control myotubes transfected with PS188 in presence of pentoxifylline (RT-PCR); type: cell-based, human; settings: 250 nM PS188, 0 to 0.5 mg/ml pentoxifylline, RNA 24 hrs after transfection
Method: (§1) A., B. Differentiated muscle cell cultures (myotubes) derived from a healthy control individual were transfected with 250 nM PS188 ([5′ […] 3′; SEQ ID NO:10] an AON optimized to specifically skip exon 44) or 250 nM PS221 ([5′ […] 3′; SEQ ID NO: 60] an AON optimized to specifically skip exon 45) in the presence of 0 to 0.5 mg/ml pentoxifylline, using the transfection reagent polymer UNIFectylin (2.0 μl UNIFectylin per μg AON in 0.15M NaCl). UNIFectylin interacts electrostatically with nucleic acids, provided that the nucleic acid is negatively charged (such as 2′-O-methyl phosphorothioate AONs). Pentoxyfillin (Sigma Aldrich) was dissolved in water. Total RNA was isolated 24 hrs after transfection in RNA-Bee solution (Campro Scientific, The Netherlands) according to the manufacturer's instructions. For cDNA synthesis with reverse transcriptase (Roche Diagnostics, The Netherlands), 500 ng of RNA was used in a 20 μl reaction at 55° C. for 30 min, reverse primed with DMD gene-specific primers. First PCRs were performed with outer primer sets, for 20 cycles of 94° C. (40 sec), 60° C. (40 sec), and 72° C. (60 sec). One μl of this reaction (diluted 1:10) was then re-amplified using nested primer combinations in the exons directly flanking exon 44 or 45, with 30 cycles of 94° C. (40 sec), 60° C. (40 sec), and 72° C. (60 sec). PCR products were analysed on 2% agarose gels. Skipping efficiencies were determined by quantification of PCR products using the DNA 1000 LabChip® Kit and the Agilent 2100 bioanalyzer (Agilent Technologies, The Netherlands).

DMD gene exon 45 = experiment: Exon 45 skipping in control myotubes transfected with PS221 in presence of pentoxifylline (RT-PCR); type: cell-based, human; settings: 250 nM PS221, 0 to 0.5 mg/ml pentoxifylline, RNA 24 hrs after transfection
Method: as §1

[1] = system: exon 23 of the dystrophin gene; experiment: Exon 23 skipping in mdx mice treated with PS49 with or without pentoxyfilline (RT-PCR); type: in vivo
Method: In a pre-clinical study in mdx mice (animal model for DMD) the effect of adjunct compound pentoxyfilline on AON-induced exon skipping was assessed. Mdx mice (C57Bl/10ScSn-mdx/J) were obtained from Charles River Laboratories (The Netherlands). These mice are dystrophin-deficient due to a nonsense mutation in exon 23. AON-induced exon 23 skipping is therapeutic in mdx mice by removing the nonsense mutation and correction of the open reading frame. Two mdx mice per group were injected subcutaneously with: Group 1) pentoxyfilline (50 mg/kg, wk 1-2), Group 2) mouse-specific antisense oligonucleotide PS49 designed to specifically induce exon 23 skipping (100 mg/kg, wk 2 (2 times), Group 3) pentoxyfilline (50 mg/kg, wk 1-2)+PS49 (100 mg/kg, wk 2 (2 times). PS49 (5′ […] 3′) has a full-length phosphorothioate backbone and 2′O-methyl modified ribose molecules.
All mice were sacrificed at 1 week post-last-injection. Different muscles groups, including quadriceps, tibialis anterior, triceps and heart muscles were isolated and frozen in liquid nitrogen-cooled 2-methylbutane. […] PCR products were analysed on 2% agarose gels. Skipping efficiencies were determined by quantification of PCR products using the DNA 1000 LabChip® Kit and the Agilent 2100 bioanalyzer (Agilent Technologies, The Netherlands).

20S and 26S proteasomes = settings: read-out: Ki (proteasomal inhibitor); cited from earlier work
dystrophin = settings: mdx mice; variability among animals; cited from earlier work
[2] = system: exon 23 of the dystrophin gene; experiment: Exon 23 skipping in mdx mice treated with PS49 with or without prednisolone (RT-PCR); type: in vivo
Method: Two mdx mice per group were injected subcutaneously with: Group 1) physiologic salt (wk 1-8), Group 2) prednisolone (1 mg/kg, wk 1-8), Group 3) mouse-specific antisense oligonucleotide PS49 designed to specifically induce exon 23 skipping (100 mg/kg, wk 4 (5 times), week 5-8 (2 times), Group 4) prednisolone (1 mg/kg, wk 1-8)+PS49 (100 mg/kg, wk 4 (5 times), week 5-8 (2 times). PS49 (5′ [sequence] 3′) has a full-length phosphorothioate backbone and 2′O-methyl modified ribose molecules.
All mice were sacrificed at 1 week post-last-injection. Different muscles groups, including quadriceps, tibialis anterior, and diaphragm muscles were isolated and frozen in liquid nitrogen-cooled 2-methylbutane. For RT-PCR analysis, the muscle samples were homogenized in the RNA-Bee solution (Campro Scientific, The Netherlands). Total RNA was isolated and purified according to the manufacturer's instructions. For cDNA synthesis with reverse transcriptase (Roche Diagnostics, The Netherlands), 300 ng of RNA was used in a 20 μl reaction at 55° C. for 30 min, reverse primed with mouse DMD gene-specific primers. First PCRs were performed with outer primer sets, for 20 cycles of 94° C. […] PCR products were analysed on 2% agarose gels. Skipping efficiencies were determined by quantification of PCR products using the DNA 1000 LabChip® Kit and the Agilent 2100 bioanalyzer (Agilent Technologies, The Netherlands).

[3] = mdx mice, s.c., sacrificed 1 week post-last-injection

CC(=O)CCCCn1c(=O)c2c(ncn2C)n(C)c1=O [pentoxifylline]
exon 44 skipping levels (DMD gene exon 44): enhances exon skipping levels | exon 44 skipping levels (DMD gene exon 44; listed as pentoxyfilline): enhanced | exon 45 skipping levels (DMD gene exon 45): enhances exon skipping levels | exon 45 skipping levels (DMD gene exon 45; listed as pentoxyfilline): enhanced | exon 23 skipping in muscles (RT-PCR) [1, 3]: No exon 23 skipping was observed | exon 23 skipping levels, PS49 plus pentoxyfilline (group 3) compared to PS49 only (group 2) ([1]; quadriceps, tibialis anterior, triceps, heart, pentoxyfilline 50 mg/kg wk 1-2, PS49 100 mg/kg): enhances exon 23 skipping levels

PS221: 5′ AUUCAAUGUUCUGACAACAGUUUGC 3′; SEQ ID NO: 60; an AON optimized to specifically skip exon 45 (chemistry not given here)
exon 45 skipping levels (DMD gene exon 45): increasing levels

CC(C)C[C@@H](C=O)NC(=O)[C@H](CC(C)C)NC(=O)[C@H](CC(C)C)NC(=O)OCc1ccccc1 [MG-132, CBZ-leucyl-leucyl-leucinal] (Cbz-Leu-Leu-Leu-aldehyde)
pKi (20S and 26S proteasomes): 8.40

PS188: 5′ UCAGCUUCUGUUAGCCACUG 3′; SEQ ID NO:10; an AON optimized to specifically skip exon 44 (chemistry not given here)
exon 44 skipping levels (DMD gene exon 44): increasing levels

gentamicin
novel dystrophin expression, of normal level (dystrophin): up to 20%

C[C@]12C=CC(=O)C=C1CC[C@@H]1[C@@H]2[C@@H](O)C[C@@]2(C)[C@H]1CC[C@]2(O)C(=O)CO [prednisolone]
exon 23 skipping in muscles (RT-PCR) [2, 3]: No exon 23 skipping was observed | exon 23 skipping levels, PS49 plus prednisolone (group 4) compared to PS49 only (group 3) ([2]; quadriceps, tibialis anterior, diaphragm, prednisolone 1 mg/kg wk 1-8, PS49 100 mg/kg): enhances exon 23 skipping levels
